Data reported in patent US20250129027A1 (APOGEE PHARMACEUTICALS, INC., priority 2023, published 2025).
Values after ≈ are worked out from the molar mass of the structure shown. Like-named read-outs stand apart in the source and are kept apart here.

Key:
human recombinant MAGL = human recombinant MAGL (Homo sapiens (Human), UniProt Q99685); assay: In vitro inhibition of MAGL activity (inhibitor screening kit, 4-nitrophenylacetate); assay type: biochemical; conditions: human recombinant MAGL
Outline: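 Percent inhibition derived from absorbance (405-412 nm) of treated wells relative to untreated enzyme control. Human recombinant MAGL with 4-nitrophenylacetate substrate, whose cleavage yields yellow 4-nitrophenol.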

[1] = Aqueous solubility in PBS buffer pH 7.4 (LC-MS); assay type: physicochemical; conditions: phosphate buffer, kinetic from dmso stock, PBS buffer pH 7.4, room temperature, spiked at 100 μM from DMSO stock
Experimental: Compounds as described herewith were analyzed for their aqueous solubility.
The aqueous solubility of compounds were determined using standard protocols. To illustrate the experimental protocol, the analysis of a representative compound is described. Exemplary compound of Example 158 (MW: 380.4 g/mol) was analyzed in a buffer system at specified pH (phosphate buffer, pH 7.4). This was accomplished by spiking a DMSO stock solution of the test compound at a final concentration of 100 μM in buffer.
Solubility calculation: This is a quantitative assay. The mixture at the end of the assay is filtered by 0.22 micron syringe filter and after 5× dilution in diluent, it was analyzed versus a calibration curve using LC-MS.

[2] = Plasma stability (LC-MS/MS, % parent compound remaining, half-life); assay type: in vitro ADME; conditions: human plasma; for half-life at 1 μM: 37° C., 0-240 mins, read-out: Human Plasma Stability (t1/2, min); for plasma stability and/or aqueous solubility compared to reference compound URB597: see Table 5
Experimental: Exemplary compounds described herewith were assayed for plasma stability (various species).
Plasma was removed from deep freezer and allowed to thaw at room temperature (or at 37° C. if needed). Plasma was then centrifuged at 4,000 rpm at RT for 10 min and supernatant was collected and used for the assay: • Drug test tubes: 297 μL plasma/drug test tube, duplicate/drug. • Blank test tubes: 297 μL plasma/Blank test tube, duplicate, too. (Optional, if assay system is stable and consistent) • T0 plasma tube: […] X No. of total sample tubes+50 μL extra for T0 extraction. • (Note: equivalent proportion of solvent mixture as added in drug test tubes will be added before T0 extraction!)
Take out the pre-warmed plasma tubes from the 37° C. incubator. Add 3 μL of 100 μM stock solution (or, equivalent proportion of the solvent mixture to T0 plasma tube for T0 extraction) to each corresponding sample tubes in order, vortex gently (3×) to mix. Finish the sample tubes orderly and quickly, then transfer them to the Thermomixer (program & 37° C. ready), and start the Thermomixer. Record starting time on paper & start the timer for 15 min for the 1st sampling time point.
Now add the equivalent amount of solvent mixture to the T0 plasma tube, mix, and transfer 50 μL plasma to each of the T0 extracting tubes, vortex 20s and placed on ice. Vortex 10s again before centrifuging the samples at 14,000 rpm for 5 min at 4° C.
Repeat the above procedures at each time point (15, 30, 60, 120, 240 min) by transferring 50 μL plasma samples from the testing tubes to the corresponding extracting tubes, in the same order and time scheme as in the addition of the drug to the plasma samples at the beginning of the study.
• Kel=Slope of LN % PCR vs time
Half life (t½)=0.693/Kel (1)

human recombinant FAAH = human recombinant FAAH (Homo sapiens (Human), UniProt O00519); assay: In vitro inhibition of FAAH activity (fluorescent inhibitor screening kit, AMC arachidonoyl amide); assay type: biochemical
Outline: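 Fluorogenic kit assay: AMC arachidonoyl amide is cleaved by human recombinant FAAH, read at 340-360/450-465 nm. Percent inhibition versus non-treated control; IC50 values derived from multiple compound concentrations where tested.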

[3] = FAAH, values as listed in Table 5, read-out: IC50
[4] = human recombinant FAAH, read-out: Inhibition on FAAH activity (IC50)

Sequence of human recombinant MAGL (Q99685 whole entry): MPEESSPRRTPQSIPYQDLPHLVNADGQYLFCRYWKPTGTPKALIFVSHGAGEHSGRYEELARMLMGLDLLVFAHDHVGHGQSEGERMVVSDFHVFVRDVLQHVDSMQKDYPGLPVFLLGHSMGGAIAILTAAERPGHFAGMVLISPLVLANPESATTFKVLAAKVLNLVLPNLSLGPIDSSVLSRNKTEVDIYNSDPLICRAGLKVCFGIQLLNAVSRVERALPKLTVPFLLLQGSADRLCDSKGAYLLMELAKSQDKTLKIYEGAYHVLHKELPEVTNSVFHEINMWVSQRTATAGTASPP
Sequence of human recombinant FAAH (O00519 whole entry): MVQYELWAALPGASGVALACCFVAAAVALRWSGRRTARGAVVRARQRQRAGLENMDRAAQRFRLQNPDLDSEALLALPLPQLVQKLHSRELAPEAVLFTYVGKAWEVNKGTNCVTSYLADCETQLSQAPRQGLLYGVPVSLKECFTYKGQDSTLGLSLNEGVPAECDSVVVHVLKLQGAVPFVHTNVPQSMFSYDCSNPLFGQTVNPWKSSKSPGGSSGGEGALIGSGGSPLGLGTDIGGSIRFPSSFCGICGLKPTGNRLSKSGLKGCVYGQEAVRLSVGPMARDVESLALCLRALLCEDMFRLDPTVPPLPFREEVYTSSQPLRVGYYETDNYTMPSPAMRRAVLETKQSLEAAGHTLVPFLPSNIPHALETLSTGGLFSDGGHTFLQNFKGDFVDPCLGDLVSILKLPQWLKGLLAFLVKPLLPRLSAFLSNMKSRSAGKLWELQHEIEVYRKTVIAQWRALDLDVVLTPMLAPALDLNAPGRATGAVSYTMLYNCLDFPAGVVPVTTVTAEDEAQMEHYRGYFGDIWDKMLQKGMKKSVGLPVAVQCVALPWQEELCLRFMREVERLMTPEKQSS

| Compound | IC50 (human recombinant MAGL) [nM] | solubility [1] [µM] | half-life at 1 μM [2] [min] | plasma stability and/or aqueous solubility compared to reference compound URB597 [2] | IC50 (human recombinant FAAH; [3]) [nM] | IC50 (human recombinant FAAH; [4]) [nM] |
| --- | --- | --- | --- | --- | --- | --- |
| O=C(NC1CCCCCC1)Oc1ccc(O)c(-c2cncc(-c3ncn[nH]3)c2)c1 [Example 231, 3-(5-(1H-1,2,4-triazol-5-yl)pyridin-3-yl)-4-hydroxyphenyl cycloheptylcarbamate] | > 10000 | 78.8 (≈ 31 µg/mL) | 634 | improved plasma stability, improved aqueous solubility, or improved plasma stability and aqueous solubility | 137 | 137 |
| O=C(NC1CCCCCC1)Oc1ccc(F)c(-c2cncc(-c3nnco3)c2)c1 [Example 194, 3-(5-(1,3,4-oxadiazol-2-yl)pyridin-3-yl)-4-fluorophenyl cycloheptylcarbamate] | > 10000 | – | 41 | improved plasma stability, improved aqueous solubility, or improved plasma stability and aqueous solubility | 49.1 | 49.1 |
| O=C(NC1CCCCCC1)Oc1cc(F)cc(-c2cncc(-c3nnco3)c2)c1 [Example 198, 3-(5-(1,3,4-oxadiazol-2-yl)pyridin-3-yl)-5-fluorophenyl cycloheptylcarbamate] | > 10000 | 5.7 (≈ 2.26 µg/mL) | 4.7 | – | 132 | 132 |
| O=C(Oc1cccc(-c2cncc(-c3nnco3)c2)c1)N1CC2(CCC2)C1 [Example 146, 3-(5-(1,3,4-oxadiazol-2-yl)pyridin-3-yl)phenyl 2-azaspiro[3.3]heptane-2-carboxylate] | > 10000 | 82.7 (≈ 30 µg/mL) | 186 | improved plasma stability, improved aqueous solubility, or improved plasma stability and aqueous solubility | 401 | 401 |
| COc1ccc(OC(=O)NC2CCCCCC2)cc1-c1cncc(-c2ncco2)c1 [Example 83, 4-methoxy-3-(5-(oxazol-2-yl)pyridin-3-yl)phenyl cycloheptylcarbamate] | > 10000 | 16.3 (≈ 6.64 µg/mL) | 194 | improved plasma stability, improved aqueous solubility, or improved plasma stability and aqueous solubility | 111 | 10 to 100 |
| O=C(NC1CCCCCC1)Oc1cccc(-c2cncc(-c3cccs3)c2)c1 [Example 64, 3-(5-(thiophen-2-yl)pyridin-3-yl)phenyl cycloheptylcarbamate] | > 10000 | – | 24 | – | 39.1 | 39.1 |
| O=C(NC1CCCCCC1)Oc1cc(O)cc(-c2cncc(-c3nnco3)c2)c1 [Example 165, 3-(5-(1,3,4-oxadiazol-2-yl)pyridin-3-yl)-5-hydroxyphenyl cycloheptylcarbamate] | > 10000 | 22.6 (≈ 8.91 µg/mL) | 28 | – | 25.8 | 25.8 |
| O=C(NCC1CCCCC1)Oc1cccc(-c2cncc(-c3nnco3)c2)c1 [Example 134, 3-(5-(1,3,4-oxadiazol-2-yl)pyridin-3-yl)phenyl (cyclohexylmethyl)carbamate] | > 10000 | – | – | – | – | 10 to 20 |
| O=C(NC1CCCCCC1)Oc1cccc(-c2cncc(C(F)(F)F)c2)c1 [Example 34, 3-(5-(trifluoromethyl)pyridin-3-yl)phenyl cycloheptylcarbamate] | > 10000 | – | – | – | – | 100 to 1000 |
| O=C(NC1CCCC1)Oc1cc(O)cc(-c2cncc(-c3nnco3)c2)c1 [Example 163, 3-(5-(1,3,4-oxadiazol-2-yl)pyridin-3-yl)-5-hydroxyphenyl cyclopentylcarbamate] | > 50000 | – | – | – | – | 10 to 100 |
| CCCCCCCCNC(=O)Oc1cc(-c2cncc(-c3ncco3)c2)ccc1OC [Example 84, 2-methoxy-5-(5-(oxazol-2-yl)pyridin-3-yl)phenyl octylcarbamate] | ~10000 | – | – | – | – | 100 to 1000 |
| O=C(NCC1CCCCC1)Oc1ccc(O)c(-c2cncc(-c3nnn[nH]3)c2)c1 [Example 245, 3-(5-(1H-tetrazol-5-yl)pyridin-3-yl)-4-hydroxyphenyl (cyclohexylmethyl)carbamate] | > 10000 | – | – | – | – | > 1000 |
| O=C(Oc1cccc(-c2cncc(-c3nnco3)c2)c1)N1C2CCCC1CC2 [Example 150, 3-(5-(1,3,4-oxadiazol-2-yl)pyridin-3-yl)phenyl 8-azabicyclo[3.2.1]octane-8-carboxylate] | > 10000 | – | – | – | – | > 1000 |
| O=Cc1cncc(-c2cccc(OC(=O)NC3CCCC3)c2)c1 [Example 18, 3-(5-formylpyridin-3-yl)phenyl cyclopentylcarbamate] | > 10000 | – | – | – | – | 10 to 100 |
| COc1ccc(OC(=O)NC2CCCC2)cc1-c1cncc(-c2nccs2)c1 [Example 124, 4-methoxy-3-(5-(thiazol-2-yl)pyridin-3-yl)phenyl cyclopentylcarbamate] | > 10000 | – | – | – | – | 100 to 1000 |
| CC1CCC(NC(=O)Oc2ccc(F)c(-c3cncc(-c4nnco4)c3)c2)CC1 (stereo not drawn) [Example 193, 3-(5-(1,3,4-oxadiazol-2-yl)pyridin-3-yl)-4-fluorophenyl (4-methylcyclohexyl)carbamate] | > 10000 | – | – | – | – | 10 to 100 |
| O=C(NC1CCCCC1)Oc1cccc(-c2cncc(-c3ccc[nH]3)c2)c1 [Example 39, 3-(5-(1H-pyrrol-2-yl)pyridin-3-yl)phenyl cyclohexylcarbamate] | > 10000 | – | – | – | – | 100 to 1000 |
| O=C(NCC1CCCCC1)Oc1cccc(-c2cncc(-c3nncs3)c2)c1 [Example 208, 3-(5-(1,3,4-thiadiazol-2-yl)pyridin-3-yl)phenyl (cyclohexylmethyl)carbamate] | > 10000 | – | – | – | – | 10 to 100 |
| COc1ccc(OC(=O)NC2CCCC2)cc1-c1cncc(-c2nnn[nH]2)c1 [Example 253, 3-(5-(1H-tetrazol-5-yl)pyridin-3-yl)-4-methoxyphenyl cyclopentylcarbamate] | > 10000 | – | – | – | – | > 1000 |
| O=C(NC1CCCCC1)Oc1cccc(-c2cncc(C(F)(F)F)c2)c1 [Example 33, 3-(5-(trifluoromethyl)pyridin-3-yl)phenyl cyclohexylcarbamate] | > 10000 | – | – | – | – | 100 to 1000 |
| COc1ccc(OC(=O)NCC2CCCCC2)cc1-c1cncc(-c2nnco2)c1 [Example 168, 3-(5-(1,3,4-oxadiazol-2-yl)pyridin-3-yl)-4-methoxyphenyl (cyclohexylmethyl)carbamate] | > 10000 | – | – | – | – | 100 to 1000 |
| O=C(NC1CCCC1)Oc1cccc(-c2cncc(C(F)(F)F)c2)c1 [Example 32, 3-(5-(trifluoromethyl)pyridin-3-yl)phenyl cyclopentylcarbamate] | > 10000 | – | – | – | – | 10 to 100 |
| O=C(NC1CCCCCC1)Oc1cccc(-c2cc(-c3nnco3)ccn2)c1 [Example 262, 3-(4-(1,3,4-oxadiazol-2-yl)pyridin-2-yl)phenyl cycloheptylcarbamate] | > 1000 | – | – | – | – | 10 to 100 |
| COc1ccc(OC(=O)NC2CCCCC2)cc1-c1cncc(-c2nnn[nH]2)c1 [Example 254, 3-(5-(1H-tetrazol-5-yl)pyridin-3-yl)-4-methoxyphenyl cyclohexylcarbamate] | > 10000 | – | – | – | – | > 1000 |
| O=C(NC1CCCCCC1)Oc1cccc(-c2cncc(-c3nnco3)n2)c1 [Example 268, 3-(6-(1,3,4-oxadiazol-2-yl)pyrazin-2-yl)phenyl cycloheptylcarbamate] | 1000 to 10000 | – | – | – | – | 10 to 100 |
| O=C(NC1CC2(CCC2)C1)Oc1cccc(-c2cncc(-c3nnco3)c2)c1 [Example 147, 3-(5-(1,3,4-oxadiazol-2-yl)pyridin-3-yl)phenyl spiro[3.3]heptan-2-ylcarbamate] | > 10000 | – | – | – | – | 10 to 100 |
